In patent US20250041380A1, “R[…] FOR SARS-COV2 DISEASE” (priority 2021, published 2025):
Read-outs that look alike come from different tables or passages of the source.

Key:
DPP4 = target: T1, DPP4 (Homo sapiens, UniProt P27487); format: biochemical
T1 construct: purchased

Cathepsin L = target: T2, Cathepsin L (Homo sapiens, UniProt P07711); format: biochemical
T2 construct: purchased
T2 sequence (P07711 114-333): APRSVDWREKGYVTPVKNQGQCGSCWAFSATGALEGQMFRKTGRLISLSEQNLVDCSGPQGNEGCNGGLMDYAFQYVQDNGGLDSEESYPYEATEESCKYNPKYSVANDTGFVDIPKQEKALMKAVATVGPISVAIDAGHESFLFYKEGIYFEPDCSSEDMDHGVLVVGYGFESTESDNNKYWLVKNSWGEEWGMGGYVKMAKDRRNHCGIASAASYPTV

T1 sequence (P27487 whole entry): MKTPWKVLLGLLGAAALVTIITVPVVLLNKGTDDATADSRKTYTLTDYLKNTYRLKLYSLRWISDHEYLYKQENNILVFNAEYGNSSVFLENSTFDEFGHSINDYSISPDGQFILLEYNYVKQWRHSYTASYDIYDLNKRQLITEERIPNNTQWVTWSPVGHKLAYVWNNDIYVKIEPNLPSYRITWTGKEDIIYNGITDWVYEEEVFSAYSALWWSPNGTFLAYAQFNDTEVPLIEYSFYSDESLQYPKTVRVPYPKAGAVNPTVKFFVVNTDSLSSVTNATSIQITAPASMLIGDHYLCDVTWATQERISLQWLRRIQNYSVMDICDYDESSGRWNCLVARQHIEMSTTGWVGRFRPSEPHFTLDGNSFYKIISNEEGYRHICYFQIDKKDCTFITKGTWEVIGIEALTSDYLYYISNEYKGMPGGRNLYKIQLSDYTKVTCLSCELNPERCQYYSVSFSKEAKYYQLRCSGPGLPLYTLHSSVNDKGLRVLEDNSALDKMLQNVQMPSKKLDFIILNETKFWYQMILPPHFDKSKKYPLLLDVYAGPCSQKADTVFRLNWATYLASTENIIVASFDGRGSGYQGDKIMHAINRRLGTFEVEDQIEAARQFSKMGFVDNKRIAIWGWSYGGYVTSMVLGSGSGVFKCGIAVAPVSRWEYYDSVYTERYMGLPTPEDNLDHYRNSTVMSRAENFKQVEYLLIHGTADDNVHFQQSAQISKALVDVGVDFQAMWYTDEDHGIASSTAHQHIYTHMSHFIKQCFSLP

SMILES | % Inhibition wrt Enzyme Control (DPP4; 0.001 μM) [%] | % Inhibition wrt Enzyme Control (DPP4; 0.01 μM) [%] | % Inhibition wrt Enzyme Control (DPP4; 0.1 µM) [%] | % Inhibition wrt Enzyme Control (DPP4; 1 µM) [%] | % Inhibition wrt Enzyme Control (Cathepsin L; 0.0001 μM) [%] | % Inhibition wrt Enzyme Control (Cathepsin L; 0.01 μM) [%] | % Inhibition wrt Enzyme Control (Cathepsin L; 0.1 µM) [%]
CC(C)C[C@H](NC(=O)OCc1ccccc1)C(=O)N[C@@H](C[C@@H]1CCNC1=O)C(O)S(=O)(=O)[O-].[Na+] (stereo partly shown) [GC376] | 32.4 | 76.2 | 87.1 | 99.5 |  |  | 
CC(C)C[C@H](NC(=O)[C@H]1O[C@@H]1C(=O)O)C(=O)NCCCCN=C(N)N [E-64] |  |  |  |  | 7.4 | 24.2 | 61.0
